Columns and labels:
α4β1 = biological target: T1, α4β1 (Homo sapiens, UniProt P05556+P13612); experiment: Ramos Cell Adhesion Assay (α4β1 Mediated Adhesion/VCAM-1); type: cell-based; conditions: Ramos cells adhering to recombinant hVCAM-1
T1 construct: Ramos cells, (50 μL at 2×10^6/mL) labeled with 5 μM Calcein AM; endogenous in cells; host or cells: Ramos cells
Method: Ramos Cell Adhesion Assay (α4β1 Mediated Adhesion/VCAM-1)
Immulon 96 well plates (Dynex) were coated with 100 μL recombinant hVCAM-1 at 4.0 μg/mL in 0.05 M NaCO3 buffer pH 9.0 overnight at 4° C. (R&D Systems). Plates were washed 2 times in PBS with 1% BSA and blocked for 1 h@room temperature in this buffer. PBS was removed and compounds to be tested (50 μL) were added at 2× concentration. Ramos cells, (50 μL at 2×10^6/mL) labeled with 5 μM Calcein AM (Molecular Probes) for 1 h at 37° C., were added to each well and allowed to adhere for 1 h at room temperature. Plates were washed 4 × in PBS+1% BSA and cells were lysed for 15 minutes in 100 μL of 1 M Tris pH 8.0 with 1% SDS. The plate was read at 485 nm excitation and 530 nm emission.

human α4β7 integrin = biological target: T2, human α4β7 integrin (Homo sapiens, UniProt P13612+P26010); experiment: α4β7-K562 Cell Adhesion Assay (α4β7 Mediated Adhesion/MAdCAM-1); type: cell-based; conditions: K562 cells expressing human α4β7 adhering to FLAG-hMAdCAM-1, 1 mM Mn2+
T2 construct: expressed in transfected cells; host or cells: K562 cells, stably transfected
T2 sequence (P13612 34-1032): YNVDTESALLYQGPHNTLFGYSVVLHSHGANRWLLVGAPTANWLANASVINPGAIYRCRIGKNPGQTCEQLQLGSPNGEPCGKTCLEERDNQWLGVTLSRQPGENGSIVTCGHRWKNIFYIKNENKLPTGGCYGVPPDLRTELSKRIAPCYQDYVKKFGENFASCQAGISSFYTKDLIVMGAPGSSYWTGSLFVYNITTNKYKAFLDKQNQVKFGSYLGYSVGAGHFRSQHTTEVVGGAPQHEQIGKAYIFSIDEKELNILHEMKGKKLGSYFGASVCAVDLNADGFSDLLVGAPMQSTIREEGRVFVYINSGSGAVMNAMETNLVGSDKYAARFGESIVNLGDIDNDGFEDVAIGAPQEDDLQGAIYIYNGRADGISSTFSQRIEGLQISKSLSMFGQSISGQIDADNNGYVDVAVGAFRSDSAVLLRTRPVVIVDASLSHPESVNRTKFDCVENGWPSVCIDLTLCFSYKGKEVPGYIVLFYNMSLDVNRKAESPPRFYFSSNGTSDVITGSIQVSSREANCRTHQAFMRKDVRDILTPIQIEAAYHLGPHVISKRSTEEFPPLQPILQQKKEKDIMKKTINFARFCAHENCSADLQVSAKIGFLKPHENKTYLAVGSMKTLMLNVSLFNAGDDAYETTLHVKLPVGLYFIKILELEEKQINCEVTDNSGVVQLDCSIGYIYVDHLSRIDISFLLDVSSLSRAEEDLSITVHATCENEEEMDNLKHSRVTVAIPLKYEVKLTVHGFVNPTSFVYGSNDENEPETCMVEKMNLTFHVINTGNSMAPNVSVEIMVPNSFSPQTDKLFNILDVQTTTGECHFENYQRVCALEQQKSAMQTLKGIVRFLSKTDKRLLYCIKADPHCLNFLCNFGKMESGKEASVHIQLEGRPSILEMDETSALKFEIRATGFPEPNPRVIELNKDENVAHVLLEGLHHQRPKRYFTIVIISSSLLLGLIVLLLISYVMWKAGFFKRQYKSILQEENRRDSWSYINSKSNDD
T2 sequence (P26010 20-798): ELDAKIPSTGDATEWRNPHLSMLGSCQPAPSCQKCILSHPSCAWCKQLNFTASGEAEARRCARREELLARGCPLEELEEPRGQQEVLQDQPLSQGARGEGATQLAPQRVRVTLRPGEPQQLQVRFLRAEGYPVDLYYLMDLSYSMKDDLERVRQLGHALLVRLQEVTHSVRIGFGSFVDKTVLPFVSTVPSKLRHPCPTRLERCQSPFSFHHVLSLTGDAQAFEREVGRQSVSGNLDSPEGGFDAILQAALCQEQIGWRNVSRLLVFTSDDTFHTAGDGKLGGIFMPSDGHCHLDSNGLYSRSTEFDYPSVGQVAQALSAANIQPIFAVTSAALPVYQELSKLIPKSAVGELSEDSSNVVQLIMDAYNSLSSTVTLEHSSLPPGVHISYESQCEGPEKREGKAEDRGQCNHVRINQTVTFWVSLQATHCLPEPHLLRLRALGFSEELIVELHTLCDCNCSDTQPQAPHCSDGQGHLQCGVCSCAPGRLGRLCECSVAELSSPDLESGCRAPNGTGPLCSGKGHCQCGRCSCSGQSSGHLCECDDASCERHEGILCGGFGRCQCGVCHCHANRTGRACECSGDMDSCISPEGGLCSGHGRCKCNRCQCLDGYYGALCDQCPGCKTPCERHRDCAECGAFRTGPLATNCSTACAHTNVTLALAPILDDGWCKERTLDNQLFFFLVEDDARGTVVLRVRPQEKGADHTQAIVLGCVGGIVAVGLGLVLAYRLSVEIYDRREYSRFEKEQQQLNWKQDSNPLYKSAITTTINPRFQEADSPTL
Method: α4β7-K562 Cell Adhesion Assay (α4β7 Mediated Adhesion/MAdCAM-1)
M2 anti-FLAG Antibody Coated 96-well plates (Sigma) were coated for 1 hour at 4° C. with 2-8 μL/well recombinant FLAG-hMAdCAM-1 contained in 100 μL of Dulbecco's PBS, pH 7.4, with 1% BSA and 1 mM Mn^2+ (PBS-BSA-Mn). Plates were washed once with PBS-BSA-Mn. Buffer was removed and compounds to be tested (50 μL) were added at 2× concentration. Stably transfected K562 cells expressing human α4β7 integrin, (50 μL at 2×10^6/mL) that had been labeled with 100 μg/mL carboxymethyl fluorescein diacetate succinimidyl ester (CFDA-SE; Molecular Probes) for 15 min at 37° C. were added to each well and allowed to adhere for 1 h at room temperature. Plates were washed 4× in PBS-BSA-Mn and then cells were lysed for 2 min by addtion of 100 μL of PBS without Ca^2+, Mg^2+ supplemented with 0.1 M NaOH. The plate was read on a 96-well fluorescent plate reader at 485 nm excitation and 530 nm emission.

T1 sequence (P05556 21-798, one chain of several): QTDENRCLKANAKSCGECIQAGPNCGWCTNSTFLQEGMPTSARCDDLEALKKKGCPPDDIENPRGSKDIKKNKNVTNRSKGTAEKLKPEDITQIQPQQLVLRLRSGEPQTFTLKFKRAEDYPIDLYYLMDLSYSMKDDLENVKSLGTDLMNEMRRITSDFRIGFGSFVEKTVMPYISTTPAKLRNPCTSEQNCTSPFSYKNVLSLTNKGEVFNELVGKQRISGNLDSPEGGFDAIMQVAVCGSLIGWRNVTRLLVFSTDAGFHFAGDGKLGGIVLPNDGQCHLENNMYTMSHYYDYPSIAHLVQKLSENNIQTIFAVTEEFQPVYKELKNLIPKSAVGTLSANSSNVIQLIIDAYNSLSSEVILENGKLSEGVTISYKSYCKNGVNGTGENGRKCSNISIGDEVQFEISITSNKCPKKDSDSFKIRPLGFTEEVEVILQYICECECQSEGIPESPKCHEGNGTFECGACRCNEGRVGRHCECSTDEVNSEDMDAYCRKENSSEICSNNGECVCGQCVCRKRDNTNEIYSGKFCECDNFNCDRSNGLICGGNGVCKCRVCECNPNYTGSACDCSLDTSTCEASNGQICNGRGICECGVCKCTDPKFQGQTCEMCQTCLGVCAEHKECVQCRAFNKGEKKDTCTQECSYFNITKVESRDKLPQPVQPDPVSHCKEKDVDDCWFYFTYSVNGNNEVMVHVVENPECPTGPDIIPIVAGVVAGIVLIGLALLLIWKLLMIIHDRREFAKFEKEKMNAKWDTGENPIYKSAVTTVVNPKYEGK

| SMILES | IC50 (α4β1) [µM] | IC50 (human α4β7 integrin) [µM] |
| --- | --- | --- |
| COc1cnn(C)c(=O)c1-c1ccc(C[C@H](NC(=O)N(c2ccccc2)c2ccccc2)C(=O)O)cc1 [Cpd 47] | > 5 | 1.45 |
| COc1cnn(C)c(=O)c1-c1ccc(C[C@H](NC(=O)N(C(C)C)C(C)C)C(=O)O)cc1 [Cpd 1, 2-(3,3-Diisopropyl-ureido)-3-[4-(5-methoxy-2-methyl-3-oxo-2,3-dihydro-pyridazin-4-yl)-phenyl]-propionic acid] | > 1 | 0.124 |
| COc1cccc2c1OCCCN(C(=O)N[C@@H](Cc1ccc(-c3c(OC)cnn(C)c3=O)cc1)C(=O)O)C2 [Cpd 32] | > 5 | 0.428 |
| COc1cnn(C)c(=O)c1-c1ccc(C[C@H](NC(=O)N2CCN(c3ncc(C(F)(F)F)cc3Cl)CC2)C(=O)O)cc1 [Cpd 24] | > 5 | 0.391 |
| COc1cnn(C)c(=O)c1-c1ccc(C[C@H](NC(=O)N[C@@H]2CS(=O)(=O)C[C@H]2O)C(=O)O)cc1 [Cpd 36] | > 5 | 0.674 |
| COc1cnn(C)c(=O)c1-c1ccc(C[C@H](NC(=O)N(Cc2ccccc2)CC(C)C)C(=O)O)cc1 [Cpd 18] | 2.65 | 0.395 |
| COc1cnn(C)c(=O)c1-c1ccc(C[C@H](NC(=O)N(C)Cc2ccccc2)C(=O)O)cc1 [Cpd 12] | > 5 | 0.601 |
| CCN(CCN(C)C)C(=O)N[C@@H](Cc1ccc(-c2c(OC)cnn(C)c2=O)cc1)C(=O)O [Cpd 37] | > 5 | 0.297 |
| CC#CCN(Cc1ccco1)C(=O)N[C@@H](Cc1ccc(-c2c(OC)cnn(C)c2=O)cc1)C(=O)O [Cpd 31] | > 5 | 0.414 |
| COc1cnn(C)c(=O)c1-c1ccc(C[C@H](NC(=O)N(C)c2ccccc2OC(F)(F)F)C(=O)O)cc1 [Cpd 51] | > 5 | 0.052 |
| COc1cnn(C)c(=O)c1-c1ccc(C[C@H](NC(=O)N(Nc2ccccc2)c2ccccc2)C(=O)O)cc1 [Cpd 46] | > 5 | 0.575 |
| COc1cnn(C)c(=O)c1-c1ccc(C[C@H](NC(=O)N2c3ccc(F)cc3CCC2C)C(=O)O)cc1 (mixture of isomers) [Cpd 53] | > 5 | 0.128 |
| COc1cnn(C)c(=O)c1-c1ccc(C[C@H](NC(=O)N(CC(C)C)c2ccccc2)C(=O)O)cc1 [Cpd 41] | > 5 | 0.213 |
| COc1cnn(C)c(=O)c1-c1ccc(C[C@H](NC(=O)NC2CCCCC2)C(=O)O)cc1 [Cpd 20] | – | 0.497 |
| COc1cnn(CCO)c(=O)c1-c1ccc(C[C@H](NC(=O)Nc2ccccc2F)C(=O)O)cc1 [Cpd 4] | > 5 | 2.78 |
| COc1cnn(C)c(=O)c1-c1ccc(C[C@H](NC(=O)N(C)Cc2cnn(-c3ccccc3)c2)C(=O)O)cc1 [Cpd 29] | > 5 | 0.694 |
| COc1cnn(C)c(=O)c1-c1ccc(C[C@H](NC(=O)N(Cc2cccnc2)C2CN3CCC2CC3)C(=O)O)cc1 (mixture of isomers) [Cpd 40] | > 5 | 1.01 |

| SMILES | IC50 (α4β1) [µM] | IC50 (human α4β7 integrin) [µM] |
| --- | --- | --- |
| CCCN(C(=O)N[C@@H](Cc1ccc(-c2c(OC)cnn(C)c2=O)cc1)C(=O)O)c1ccccc1 [Cpd 50] | – | 0.354 |
| COc1cnn(C)c(=O)c1-c1ccc(C[C@H](NC(=O)N(C2CC2)C2CCN(C)CC2)C(=O)O)cc1 [Cpd 22] | > 5 | 0.135 |
| COc1cnn(C)c(=O)c1-c1ccc(C[C@H](NC(=O)N2CCC[C@H]2CN2CCCC2)C(=O)O)cc1 [Cpd 39] | > 5 | 0.871 |
| COc1cnn(C)c(=O)c1-c1ccc(C[C@H](NC(=O)N(C)C2CCN(Cc3ccccc3)C2)C(=O)O)cc1 (some centres unmarked) [Cpd 35] | > 5 | 1.83 |
| COc1cnn(C)c(=O)c1-c1ccc(C[C@H](NC(=O)N(C(C)C)C2CCCCC2)C(=O)O)cc1 [Cpd 33] | > 5 | 0.31 |
| COc1cnn(C)c(=O)c1-c1ccc(C[C@H](NC(=O)N(CCO)Cc2ccccc2)C(=O)O)cc1 [Cpd 15] | > 5 | 0.31 |
| COc1cnn(C)c(=O)c1-c1ccc(C[C@H](NC(=O)N(Cc2ccccc2)C(C)C)C(=O)O)cc1 [Cpd 27] | > 5 | 0.218 |
| COc1cnn(C)c(=O)c1-c1ccc(C[C@H](NC(=O)N(CCO)c2ccccc2)C(=O)O)cc1 [Cpd 16] | > 5 | 0.069 |
| COc1cnn(C)c(=O)c1-c1ccc(CC(NC(=O)N2CCCC2CO)C(=O)O)cc1 (centres unmarked) [Cpd 8, 2-[(2-Hydroxymethyl-pyrrolidine-1-carbonyl)-amino]-3-[4-(5-methoxy-2-methyl-3-oxo-2,3-dihydro-pyridazin-4-yl)-phenyl]-propionic acid] | > 5 | 0.341 |
| COc1cnn(C)c(=O)c1-c1ccc(C[C@H](NC(=O)N[C@H]2CC3CCC2C3)C(=O)O)cc1 (some centres unmarked) [Cpd 23] | > 5 | 0.183 |
| COc1cnn(C)c(=O)c1-c1ccc(C[C@H](NC(=O)NCc2ccccc2)C(=O)O)cc1 [Cpd 9] | > 5 | 0.37 |
| COc1cnn(C)c(=O)c1-c1ccc(C[C@H](NC(=O)N(C)C2CCCCC2)C(=O)O)cc1 [Cpd 11] | > 5 | 0.053 |
| COc1cnn(C)c(=O)c1-c1ccc(C[C@H](NC(=O)N(CCO)C2CCCCC2)C(=O)O)cc1 [Cpd 17] | > 5 | 0.282 |
| COc1cnn(C)c(=O)c1-c1ccc(C[C@H](NC(=O)N(C)c2ccccc2)C(=O)O)cc1 [Cpd 10] | > 5 | 0.063 |
| COc1cnn(C)c(=O)c1-c1ccc(C[C@H](NC(=O)N2CCN(C3C4CC5CC(C4)CC3C5)CC2)C(=O)O)cc1 (some centres unmarked) [Cpd 25] | > 5 | 2.02 |
| COc1cnn(C)c(=O)c1-c1ccc(C[C@H](NC(=O)N(C)C)C(=O)O)cc1 [Cpd 19] | – | 1.55 |
| COc1cnn(C)c(=O)c1-c1ccc(C[C@H](NC(=O)N2CCCCC2C)C(=O)O)cc1 (mixture of isomers) [Cpd 28] | 1.8 | 0.029 |

— patent US20050209232A1, “Pyridazinone ureas as antagonists of alpha4 integrins” (priority 2004, published 2005)
